One experiment deals with T1, TYK2 JH2 (Homo sapiens, UniProt P29597).
T1 construct: purchased DiscoverX (KINOMEscan KdELECT service); host or cells: E. coli BL21-derived (T7 phage display) or HEK-293
Kind of experiment: TYK2 JH2 binding assay (KINOMEscan KdELECT competitive binding). Particulars: TYK2 JH2 domain, DiscoverX KINOMEscan KdELECT (Assay A); read-out: Biochemical TYK2_DiscoverX_JH2_BND_Kd. The procedure, abridged:
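JH2-domain fragment, expressed as T7 phage tag in BL21-derived E. coli or DNA-tagged from HEK-293, competed with test compound against bead-immobilized biotinylated ligand in binding buffer (0.9% DMSO). 1 h shaking at room temperature; bound kinase eluted with 0.5 μM free ligand and quantified by qPCR. Kd from 11-point 3-fold dilutions.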

Experiment [1] deals with JAK1/TYK2 pSTAT5 (Tyr694/699) in THP-1 cell line. Kind of experiment: IFNa-stimulated JAK1/TYK2 pSTAT5 (Tyr694/699) inhibition cellular assay, AlphaLISA. The conditions noted are these: Homo sapiens; THP-1 cells, IFNa-stimulated, AlphaLISA (Assay B); read-out: Cellular_THP1_IFNa-pSTATS_TYK2. Type of experiment: cell-based. The procedure, abridged: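 An eight-point 6-fold titration of compound (0.04–10000 nM final) is given to THP-1 cells for 1 h before 30 min of IFNa exposure. Phospho-STAT5 is read by AlphaLISA at 615 nm. IC50 values are derived by logistic regression with bottom set to 0 and Hill slope set to −1.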

This passage reports Kd and IC50 results from patent US20240025906A1 (NEURON23, INC., priority 2022, published 2024).

Each structure is given as a SMILES string.

T1 sequence (P29597 589-875 limits assumed): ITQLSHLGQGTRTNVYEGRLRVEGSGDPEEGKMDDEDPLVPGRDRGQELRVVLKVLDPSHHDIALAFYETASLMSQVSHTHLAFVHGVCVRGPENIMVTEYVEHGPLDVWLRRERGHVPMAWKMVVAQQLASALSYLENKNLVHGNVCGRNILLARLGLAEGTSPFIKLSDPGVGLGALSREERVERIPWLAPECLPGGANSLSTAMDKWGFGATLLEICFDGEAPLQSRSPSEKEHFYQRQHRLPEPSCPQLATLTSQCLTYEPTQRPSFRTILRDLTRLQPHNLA

For `CNc1ncc(-c2nc3ccc(N4CCO[C@@H](C)C4)cn3n2)c2cc(NC(=O)C3CC3)ncc12` [Example 478, (S)-N-(8-(methylamino)-5-(6-(2-methylmorpholino)-[1,2,4]triazolo[1,5-a]pyridin-2-yl)-2,7-naphthyridin-3-yl)cyclopropanecarboxamide], on TYK2 JH2, the Kd was not above 100 nM. Moreover, the IC50 in experiment [1] was not above 500 nM.

`CNc1ncc(-c2nc3ccc(N4C[C@@H](C)O[C@@H](C)C4)cn3n2)c2cc(NC(=O)C3CC3)ncc12` [Example 479, N-(5-(6-((2R,6S)-2,6-dimethylmorpholino)-[1,2,4]triazolo[1,5-a]pyridin-2-yl)-8-(methylamino)-2,7-naphthyridin-3-yl)cyclopropanecarboxamide]: the Kd on TYK2 JH2 is not above 100 nM. In experiment [1], the IC50 was not above 500 nM.

Turning to `CNc1ncc(-c2nc3ccc(N4CCO[C@H](C(F)(F)F)C4)cn3n2)c2cc(NC(=O)C3CC3)ncc12` [Example 481, (S)-N-(8-(methylamino)-5-(6-(2-(trifluoromethyl)morpholino)-[1,2,4]triazolo[1,5-a]pyridin-2-yl)-2,7-naphthyridin-3-yl)cyclopropanecarboxamide], the Kd at TYK2 JH2 was not above 100 nM. Besides, the IC50 in experiment [1] is not above 500 nM.

In the case of `CNc1ncc(-c2nc3ccc(N4CCO[C@@H](C(F)(F)F)C4)cn3n2)c2cc(NC(=O)C3CC3)ncc12` [Example 482, (R)-N-(8-(methylamino)-5-(6-(2-(trifluoromethyl)morpholino)-[1,2,4]triazolo[1,5-a]pyridin-2-yl)-2,7-naphthyridin-3-yl)cyclopropanecarboxamide], the Kd at TYK2 JH2 is not above 100 nM. For the same molecule, in experiment [1], the IC50 was not above 500 nM.

With `CNc1ncc(-c2nc3ccc(N4CCC(F)(F)CC4)cn3n2)c2cc(NC(=O)C3CC3)ncc12` [Example 483, N-(5-(6-(4,4-difluoropiperidin-1-yl)-[1,2,4]triazolo[1,5-a]pyridin-2-yl)-8-(methylamino)-2,7-naphthyridin-3-yl)cyclopropanecarboxamide], at TYK2 JH2, the Kd is not above 100 nM. For the same molecule, the IC50 in experiment [1] was not above 500 nM.

For `CNc1ncc(-c2nc3ccc(N4CCC(F)CC4)cn3n2)c2cc(NC(=O)C3CC3)ncc12` [Example 484, N-(5-(6-(4-fluoropiperidin-1-yl)-[1,2,4]triazolo[1,5-a]pyridin-2-yl)-8-(methylamino)-2,7-naphthyridin-3-yl)cyclopropanecarboxamide], the Kd on TYK2 JH2 was not above 100 nM. Further, in experiment [1], the IC50 is not above 500 nM.

With `CNc1ncc(-c2nc3ccc(N4CCCC(F)(F)C4)cn3n2)c2cc(NC(=O)C3CC3)ncc12` [Example 485, N-(5-(6-(3,3-difluoropiperidin-1-yl)-[1,2,4]triazolo[1,5-a]pyridin-2-yl)-8-(methylamino)-2,7-naphthyridin-3-yl)cyclopropanecarboxamide], at TYK2 JH2, the Kd was not above 100 nM. Further, the IC50 in experiment [1] was not above 500 nM.

With `CNc1ncc(-c2nc3ccc(N4CCC(F)C4)cn3n2)c2cc(NC(=O)C3CC3)ncc12` (centres unmarked) [Example 486, N-(5-(6-(3-fluoropyrrolidin-1-yl)-[1,2,4]triazolo[1,5-a]pyridin-2-yl)-8-(methylamino)-2,7-naphthyridin-3-yl)cyclopropanecarboxamide], on TYK2 JH2, the Kd is not above 100 nM. The IC50 in experiment [1] was not above 500 nM.

With `CNc1ncc(-c2nc3ccc(N4C5CCC4COC5)cn3n2)c2cc(NC(=O)C3CC3)ncc12` [Example 487, N-(5-(6-(3-oxa-8-azabicyclo[3.2.1]octan-8-yl)-[1,2,4]triazolo[1,5-a]pyridin-2-yl)-8-(methylamino)-2,7-naphthyridin-3-yl)cyclopropanecarboxamide], the Kd at TYK2 JH2 was not above 100 nM. Moreover, the IC50 in experiment [1] was not above 500 nM.

In the case of `CNc1ncc(-c2nc3ccc(N4C[C@@H]5C[C@H]4CO5)cn3n2)c2cc(NC(=O)C3CC3)ncc12` [Example 488, N-(5-(6-((1S,4S)-2-oxa-5-azabicyclo[2.2.1]heptan-5-yl)-[1,2,4]triazolo[1,5-a]pyridin-2-yl)-8-(methylamino)-2,7-naphthyridin-3-yl)cyclopropanecarboxamide], at TYK2 JH2, the Kd was not above 100 nM. Further, in experiment [1], the IC50 was not above 500 nM.

As for `CNc1ncc(-c2nc3ccc(N4C[C@H]5C[C@@H]4CO5)cn3n2)c2cc(NC(=O)C3CC3)ncc12` [Example 489, N-(5-(6-((1R,4R)-2-oxa-5-azabicyclo[2.2.1]heptan-5-yl)-[1,2,4]triazolo[1,5-a]pyridin-2-yl)-8-(methylamino)-2,7-naphthyridin-3-yl)cyclopropanecarboxamide], on TYK2 JH2, the Kd is not above 100 nM. Moreover, the IC50 in experiment [1] was not above 500 nM.

On to `CNc1ncc(-c2nc3cccc(Cl)n3n2)c2cc(NC(=O)C3CC3)ncc12` [Example 490, N-(5-(5-chloro-[1,2,4]triazolo[1,5-a]pyridin-2-yl)-8-(methylamino)-2,7-naphthyridin-3-yl)cyclopropanecarboxamide], for which, on TYK2 JH2, the Kd is not above 100 nM. Besides, the IC50 in experiment [1] is not above 500 nM.

`CNc1ncc(-c2nc3c(Cl)cccn3n2)c2cc(NC(=O)C3CC3)ncc12` [Example 491, N-(5-(8-chloro-[1,2,4]triazolo[1,5-a]pyridin-2-yl)-8-(methylamino)-2,7-naphthyridin-3-yl)cyclopropanecarboxamide]: the Kd at TYK2 JH2 is not above 100 nM. For the same molecule, the IC50 in experiment [1] is not above 500 nM.

On to `CNc1ncc(-c2nc3cc(OC)ccn3n2)c2cc(NC(=O)C3CC3)ncc12` [Example 492, N-(5-(7-methoxy-[1,2,4]triazolo[1,5-a]pyridin-2-yl)-8-(methylamino)-2,7-naphthyridin-3-yl)cyclopropanecarboxamide], for which the Kd at TYK2 JH2 was not above 100 nM. In experiment [1], the IC50 was not above 500 nM.

`CNc1ncc(-c2nc3ccc(C(C)(F)F)cn3n2)c2cc(NC(=O)C3CC3)ncc12` [Example 493, N-(5-(6-(1,1-difluoroethyl)-[1,2,4]triazolo[1,5-a]pyridin-2-yl)-8-(methylamino)-2,7-naphthyridin-3-yl)cyclopropanecarboxamide]: the Kd at TYK2 JH2 is not above 100 nM. Besides, the IC50 in experiment [1] is not above 500 nM.

Regarding `CNc1ncc(-c2nc3ccc(OC(F)(F)F)cn3n2)c2cc(NC(=O)C3CC3)ncc12` [Example 493A, N-(8-(methylamino)-5-(6-(trifluoromethoxy)-[1,2,4]triazolo[1,5-a]pyridin-2-yl)-2,7-naphthyridin-3-yl)cyclopropanecarboxamide], at TYK2 JH2, the Kd was not above 100 nM. In experiment [1], the IC50 was not above 500 nM.

Take `CNc1ncc(-c2nc3ccc(OC4CC4)cn3n2)c2cc(NC(=O)C3CC3)ncc12` [Example 494, N-(5-(6-cyclopropoxy-[1,2,4]triazolo[1,5-a]pyridin-2-yl)-8-(methylamino)-2,7-naphthyridin-3-yl)cyclopropanecarboxamide]: on TYK2 JH2, the Kd was not above 100 nM. In experiment [1], the IC50 is not above 500 nM.

Turning to `CNc1ncc(-c2nc3ccc(OCC4CC4)cn3n2)c2cc(NC(=O)C3CC3)ncc12` [Example 495, N-(5-(6-(cyclopropylmethoxy)-[1,2,4]triazolo[1,5-a]pyridin-2-yl)-8-(methylamino)-2,7-naphthyridin-3-yl)cyclopropanecarboxamide], the Kd at TYK2 JH2 was not above 100 nM. Besides, the IC50 in experiment [1] is not above 500 nM.

`CNc1ncc(-c2nc3ccc(C(F)(F)F)cn3n2)c2cc(NC(=O)C3CC3)ncc12` [Example 496, N-(8-(methylamino)-5-(6-(trifluoromethyl)-[1,2,4]triazolo[1,5-a]pyridin-2-yl)-2,7-naphthyridin-3-yl)cyclopropanecarboxamide]: at TYK2 JH2, the Kd was not above 100 nM. Moreover, the IC50 in experiment [1] was not above 500 nM.
